Measurements: EP2431041A1, “PHARMACEUTICAL COMPOSITION FOR TREATING CARDIOVASCULAR DISORDER AND USE THEREOF” (Chengdu Kanghong Pharmaceutical Co., Ltd., priority 2009, dated 2010)

Experiments:
[1] = test system: rat with an acute myocardial ischemia caused by PIT; assay: rat myocardial ischemia caused by pituitrin (PIT), ST segment of ECG (Test Example 5); type: in vivo, SD rats; conditions: for ΔST Σ: sum of ST segment shift; for ΔST 10 sec / ΔST 30 sec / ΔST 1 min / ΔST 2 min / ΔST 4 min / ΔST 6 min / ΔST 8 min / ΔST 10 min / ΔST 13 min / ΔST 15 min: time after PIT injection
Procedure: Each animal in all groups was intragastrically administered with the corresponding drug at a volume of 10 ml/kg, for 7 successive days. The rat was injected intraperitoneally with 1% sodium pentobarbital (30 mg/kg) 100 min after the final administration. When anesthetized, the animal was immobilized onto a frog board and subjected to trace of normal electrocardiogram over 2 min with Lead II. Then, PIT (1.5 IU/kg) was injected slowly over 20 s into the rat through its tail vein. The changes in the electrocardiogram were traced in 15 min after PIT injection. The data from the ST segment were collected at the time-points of 10 s, 30 s, 1 min, 2 min, 4 min, 6 min, 8 min, 10 min, 13 min, and 15 min. ST segment shifts at the various time-points after modeling were compared.

[2] = test system: rabbit with lipid disorders; assay: lipid disorders in rabbit, serum TC and TG (Test Example 8); type: in vivo, Japanese white rabbit
From the text: Procedure: Animals were subjected to acclimation feeding for 10 days. […] After raised with the feed for 15 days, the animals were subjected to blood sampling from central ear artery while fasting. The sera were separated and analyzed for various blood lipid indices. From 40 animals raised with the high-fat feed, 30 animals were selected on the basis of TC content and assigned into five groups by randomized block design with six animals per group; six animals raised with the basal feed were used as the blank control group. […] Administration lasted for 4 weeks. […] ANOVA of randomized block design was used for comparisons among multiple groups, and SNK-q test was used for comparisons between two groups.
Blood samples were collected from the fasting animals in each of the groups of the experiment prior to the administration and in 24 h after the final administration and assayed for the content of total cholesterol (TC) and triglyceride (TG). Table 11 Effect of the drugs in each of the groups on serum TC and TG levels ( x ± s, n =6).

[3] = test system: Beagle canines; assay: long-term toxicity test in canine (21 days): ALT in blood and other indices; type: in vivo; conditions: intragastric once per day
From the text: Animals: Conventional, healthy adult Beagle canines, evenly composed of males and females, 6-8 month-old, body weight of 9 - 11 kg.
Medicaments: Z01 (echinocystic acid:oleanolic acid = 3:1, prepared by the method in Example 4, in which the total content of the echinocystic acid and the oleanolic acid is 99%), in-house-made off-white tablet, Lot number: 090205; Z02 (echinocystic acid:oleanolic acid = 1:1, prepared by the method in Example 1, in which the amount of echinocystic acid and oleanolic acid accounts to 94.2% of the amount of the extract), in-house-made off-white tablet, Lot number: 090206; in-house-made echinocystic acid EA (containing 98.5% of echinocystic acid), pure-white powder, Lot number: 090107; physiological saline, colorless clarified liquid, provided by Chengdu QingShan LiKang Pharmarceutical co., Ltd., Lot number: A0803025; Alanine Transarninase (ALT) Kit, provided by Sichuan MiKe Science & Technology Co., Ltd., Lot number: 1007071.
Major instruments: a fully automated blood biochemistry analyzer (Roche Integra 400 Plus, Switzerland), a fully automated hematology analyzer (Abbott CELL-DYN 3700SL, USA), a fully automated blood coagulation analyzer (SYSMEX CA-500, Japan), a four-channel physiological recording system (RM6240, Chengdu Instrument Factory, China), electronic balance, etc.
Procedure: The normal Beagle canines were subjected to quanrantine for two weeks and a dog with abnormal parameters was rejected. The selected dogs were assigned randomly into ten groups: blank control group, low dose Z01 group (the dosage of echinocystic acid, 50 mg/kg), medium dose Z01group (the dosage of echinocystic acid, 150 mg/kg), high dose Z01 group (the dosage of echinocystic acid, 250 mg/kg), Z02 low dose group (the dosage of echinocystic acid, 50 mg/kg), medium dose Z02 group (the dosage of echinocystic acid, 150 mg/kg), high dose Z02 group (echinocystic acid is 250 mg/kg), low dose EA group (50mg/kg), medium dose EA group (150mg/kg), high dose EA group (250mg/kg), with 8 animals per group evenly composed of males and females. All of the dogs in individual groups were intragastrically administered at a volume of 10 ml/kg, once per day and successively for 21 days. Prior to and at Day 21 after the administration, samples of urine excreted naturally in the morning and blood from forelimb vein were collected respectively for urine routine, blood routine, and coagulation-time determination, meanwhile the lead II electrocardiogram was traced. Prior to the administration and at Day 4, Day 7, Day 14, and Day 21 after the first administration, blood samples were collected from the canine forelimb vein and assayed on the biochemical indicator associated with liver function. In twenty-four hours after the final administration, the animals in each group were dissected, autopsied systematically and observed with naked eyes. The parenchymal organs were weighed, subjected to calculation of organ coefficients, and examined histopathologically. […] Pathologic results were descriptively discussed.

[4] = EA 50.8 mg/kg intragastric 7 days
[5] = EA 12.2 mg/kg intragastric 4 weeks
[6] = echinocystic acid content 50 mg/kg
[7] = echinocystic acid content 150 mg/kg
[8] = echinocystic acid content 250 mg/kg
[9] = OA 17.0 mg/kg intragastric 7 days
[10] = OA 4.0 mg/kg intragastric 4 weeks

## CC1(C)CC[C@]2(C(=O)O)[C@H](O)C[C@]3(C)C(=CC[C@@H]4[C@@]5(C)CC[C@H](O)C(C)(C)[C@@H]5CC[C@]43C)[C@@H]2C1 [EA, echinocystic acid]
[1]; [4]
  ΔST Σ: 0.653± 0.367 mV
  ΔST 10 sec: 0.089± 0.089 mV
  ΔST 30 sec: 0.060± 0.053 mV
  ΔST 1 min: 0.064± 0.032 mV
  ΔST 2 min: 0.075± 0.063 mV
  ΔST 4 min: 0.060± 0.039 mV
  ΔST 6 min: 0.063± 0.045 mV
  ΔST 8 min: 0.070± 0.048 mV
  ΔST 10 min: 0.061± 0.042 mV
  ΔST 13 min: 0.055± 0.039 mV
  ΔST 15 min: 0.056± 0.048 mV
[2]; [5]
  Serum TC After administration: 9.77 ± 6.30 mmol/L
  Serum TC prior to administration: 15.07 ± 5.48 mmol/L
  Serum TG After administration: 1.64 ± 0.89 mmol/L
  Serum TG prior to administration: 2.17 ± 1.04 mmol/L
[3]; [6]
  ALT at different time-points after administration, Day 4: 41.4±9.3 U/L
  ALT at different time-points after administration, Day 7: 60.3±11.6 U/L
  ALT at different time-points after administration, Day 14: 58.3±9.1 U/L
  ALT at different time-points after administration, Day 21: 69.7±6.2 U/L
  ALT, Prior to administration: 38.8±5.8 U/L
[3]; [7]
  ALT at different time-points after administration, Day 4: 42.6±8.9 U/L
  ALT at different time-points after administration, Day 7: 70.6±22.3 U/L
  ALT at different time-points after administration, Day 14: 121.3±19.3 U/L
  ALT at different time-points after administration, Day 21: 124.5±35.3 U/L
  ALT, Prior to administration: 40.3±6.2 U/L
[3]; [8]
  ALT at different time-points after administration, Day 4: 45.4±9.9 U/L
  ALT at different time-points after administration, Day 7: 146.5±49.0 U/L
  ALT at different time-points after administration, Day 14: 167.5±43.3 U/L
  ALT at different time-points after administration, Day 21: 151.3±86.6 U/L
  ALT, Prior to administration: 37.3±5.2 U/L

## CC1(C)CC[C@]2(C(=O)O)CC[C@]3(C)C(=CC[C@@H]4[C@@]5(C)CC[C@H](O)C(C)(C)[C@@H]5CC[C@]43C)[C@@H]2C1 [OA, oleanolic acid]
[1]; [9]
  ΔST Σ: 0.739± 0.408Δ mV
  ΔST 10 sec: 0.132± 0.113 mV
  ΔST 30 sec: 0.068± 0.044 mV
  ΔST 1 min: 0.079± 0.052 mV
  ΔST 2 min: 0.061± 0.034 mV
  ΔST 4 min: 0.082± 0.055 mV
  ΔST 6 min: 0.080± 0.067 mV
  ΔST 8 min: 0.073± 0.037 mV
  ΔST 10 min: 0.051± 0.032 mV
  ΔST 13 min: 0.060± 0.037 mV
  ΔST 15 min: 0.053± 0.042 mV
[2]; [10]
  Serum TC After administration: 12.05 ± 6.48 mmol/L
  Serum TC prior to administration: 14.97 ± 5.22 mmol/L
  Serum TG After administration: 1.83 ± 1.02 mmol/L
  Serum TG prior to administration: 2.06 ± 0.44 mmol/L
